Assay results from PubChem BioAssay (NCI).
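Five compound concentrations were applied to cells in 96-well plates for 48 hours; endpoints were derived by simple linear interpolation of the resulting dose-response curve. At the GI50, growth is halved. Definition used: TGI = concentration required for complete inhibition of growth.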

Columns and labels:
Test in all cases: NCI tumour cell line growth inhibition, 48 h
A549 NSCLC = tested on: A549 NSCLC
BT-549 breast = tested on: BT-549 breast
EKVX NSCLC = tested on: EKVX NSCLC
HOP-92 NSCLC = tested on: HOP-92 NSCLC
HS 578T breast = tested on: HS 578T breast
IGROV1 ovarian = tested on: IGROV1 ovarian
LOX IMVI melanoma = tested on: LOX IMVI melanoma
NCI-H23 lung = tested on: NCI-H23 lung
SK-OV-3 ovarian = tested on: SK-OV-3 ovarian
T-47D breast = tested on: T-47D breast

SMILES	TGI (A549 NSCLC)	TGI (BT-549 breast)	TGI (EKVX NSCLC)	TGI (HOP-92 NSCLC)	TGI (HS 578T breast)	TGI (IGROV1 ovarian)	TGI (LOX IMVI melanoma)	TGI (NCI-H23 lung)	TGI (SK-OV-3 ovarian)	TGI (T-47D breast)	GI50 (A549 NSCLC)	GI50 (BT-549 breast)	GI50 (HOP-92 NSCLC)	GI50 (HS 578T breast)	GI50 (IGROV1 ovarian)	GI50 (LOX IMVI melanoma)	GI50 (NCI-H23 lung)	GI50 (EKVX NSCLC)	GI50 (SK-OV-3 ovarian)	GI50 (T-47D breast)
COc1cc([C@@H]2c3cc4c(cc3[C@@H](c3c(O)cc(O)c5c3O[C@H](c3ccc(O)c(O)c3)[C@@H](O)C5)[C@H]3COC(=O)[C@H]23)OCO4)cc(OC)c1OC	> 100 µM	> 100 µM	> 100 µM	> 100 µM	> 100 µM	> 100 µM	> 100 µM	> 100 µM	3.36 µM	5.16 µM										
CN(C)c1nc(N)nc(CS)n1	> 100 µM	> 100 µM	> 100 µM	> 100 µM	> 100 µM	> 100 µM	> 100 µM	> 100 µM	> 100 µM	> 100 µM										
COc1ccc2c3c1OC1C(=O)C=CC4(CC2)N(C)CCC314 (configuration not stated)	84.1 µM	90.8 µM	92.8 µM	> 100 µM	92.5 µM	> 100 µM	> 100 µM	> 100 µM	> 100 µM	> 100 µM										
Cc1ccc(OCC2OC(n3cnc4c(Cl)nc(N)nc43)CC2Oc2ccc(C)cc2)cc1 (configuration not stated)	> 100 µM	> 100 µM	> 59.3 µM	51.7 µM	> 100 µM	61.5 µM	> 100 µM	49.7 µM	> 100 µM	> 100 µM										
C/C(=N/NC(=S)N1CCCCC1)c1ccccc1O	> 31.6 µM	> 100 µM	> 31.6 µM	> 31.6 µM	> 31.6 µM	> 100 µM	> 31.6 µM	> 31.6 µM	> 31.6 µM	> 31.6 µM										
CC(C)CNc1nc2ncnc(N)c2[nH]1	> 100 µM	> 100 µM	> 100 µM	> 100 µM	> 100 µM	> 100 µM	> 100 µM	> 100 µM	> 100 µM	> 100 µM										
CCCCOC(=O)C(NC(C(=O)OCCCC)c1cc(C(C)(C)C)c(O)c(C(C)(C)C)c1)c1cc(C(C)(C)C)c(O)c(C(C)(C)C)c1 (configuration not stated)	> 100 µM	> 100 µM	> 100 µM	> 100 µM	> 100 µM	> 100 µM	> 100 µM	> 100 µM	> 100 µM	> 100 µM										
CN(C)c1ccc(/C(F)=C(F)/C(F)=C(F)/C(F)=C(\F)c2ccc(Br)cc2)cc1	> 100 µM	> 100 µM	> 100 µM	> 100 µM	52.6 µM	> 100 µM	> 100 µM	63.4 µM	> 100 µM	> 100 µM										
CCCCCCCC/C=C\CCCCCCC/C=C1\C[C@](/C=C/C(=O)OC)(CO)OC1=O	17.8 µM	7.15 µM	24.7 µM	21.1 µM	4.69 µM	6.29 µM	3.02 µM	16.1 µM	19.1 µM	13.1 µM										
Cc1ccc([S@](=O)c2occc2C=O)cc1	46.5 µM	25.5 µM	43.6 µM	7.78 µM	36.1 µM	31.2 µM	3.93 µM	30.4 µM	26.5 µM	7.11 µM										
OCC(O)C(O)C(O)C(O)c1nc2ccc(Cl)cc2[nH]1 (configuration not stated)	> 100 µM	> 100 µM	> 100 µM	> 100 µM	> 100 µM	> 100 µM	> 100 µM	> 100 µM	> 100 µM	> 100 µM										
NS(=O)(=O)c1ccc(/C=C/c2ccc(F)cc2)cc1	37.1 µM	4.92 µM	> 100 µM	77.6 µM	77.7 µM	61.9 µM	> 100 µM	> 100 µM	57.6 µM	57.6 µM	8.93 µM	205 nM	33.2 µM	23.7 µM	20.9 µM	26.7 µM	45.1 µM			
CSCCC(N)C(=O)NCCNc1ccc(NCCNC(=O)C(N)CCSC)c2c1C(=O)c1ccccc1C2=O (configuration not stated)	3.66 µM	2.93 µM	9.65 µM	3.4 µM	6.85 µM	12.2 µM	2.54 µM	2.32 µM	10.3 µM	10.9 µM										
N#CC1(C#N)NC(c2cccs2)C(C#N)(C#N)NC1c1cccs1 (configuration not stated)	> 100 µM	57.4 µM	> 100 µM	78.7 µM	> 100 µM	> 100 µM	37.3 µM	> 100 µM	> 100 µM	> 100 µM										
OC1(c2ccccc2)CCN(Cc2c[nH]c3ccccc23)CC1	> 100 µM	> 100 µM	> 100 µM	> 100 µM	> 100 µM	> 100 µM	> 100 µM	> 100 µM	> 100 µM	> 100 µM										
CC(NC(=O)C(NC(=O)CNC(=O)OC(C)(C)C)C(C)C)C(=O)Oc1c(Cl)c(Cl)c(Cl)c(Cl)c1Cl (configuration not stated)	57.5 µM	51.2 µM	83.8 µM	41.3 µM	50.1 µM	46.6 µM	32.5 µM	29.5 µM	51.5 µM	62.4 µM										
O=C(N/N=C/C=C/c1ccc([N+](=O)[O-])o1)c1cc2ccccc2cc1O	12.2 µM	3.02 µM	9.48 µM	5.52 µM	> 100 µM	3.73 µM	1.58 µM	2.75 µM	38.5 µM	3.68 µM	2.75 µM	1300 nM	2.08 µM	3.6 µM	0.981 µM	0.356 µM	1.02 µM	2640 nM	3.36 µM	1440 nM
CO/N=C1\CC(NC(=O)CNC(=O)OC(C)(C)C)c2ccsc21 (configuration not stated)	> 100 µM	> 100 µM	> 100 µM	> 100 µM	> 100 µM	> 100 µM	> 100 µM	> 100 µM	> 100 µM	> 100 µM										
